Read-outs that look alike come from different tables or passages of the source.
Tests used:
CT-DNA [1] = assay: Competitive EtBr displacement fluorescence quenching on CT-DNA; assay type: binding, calf; conditions: for KSV, Stern–Volmer quenching constant: EB-CT-DNA adduct
Description: Using fluorescence spectroscopy, the competitive binding relationship between metal complexes and CT-DNA bound to ethidium bromide was investigated. EtBr and CT-DNA solutions at a 5 mM concentration were made in PBS buffer (pH 7.4) for the fluorescence studies. After that, the reference solutions were allowed to settle at room temperature for an hour and the CT-DNA reference solution (200 μM) was coupled to ethidium bromide (50 μM) and allowed to rest for the specified period. The excitation and emission wavelengths were set at 460 nm and incremental addition of Ti(IV) complex concentrations ranging from 0 to 80 μM were used to titrate constant concentrations of EtBr-CT-DNA solution.[43,44]
A known volume of 200 μM CT-DNA (5 Mm) and 50 μM EB was mixed with an aqueous PBS buffer to make an EB-CT-DNA solution. The mixture was then kept at room temperature for 20 minutes before the complexes were titrated. Analysis of the competitive interaction mechanisms of the complexes towards CT-DNA involved the incremental addition of Ti(IV) complexes to the mixture of EB-CT-DNA. The modification in the emission spectral profile of EB-DNA indicated the impact of the addition of the complexes and there was a noticeable decrease in inflorescence intensity when the Ti(IV) complexes (0–100 μM) were added to the EB-CT-DNA system (Fig. 4(a), ESI Fig. S63 ^† and Table 2).
The linear plot of I0/I versus [complex] […] KSV is the Stern–Volmer quenching constant, and [Q] is the quencher concentration.6 Kapp × [Complex]50 = KEtBr × [EtBr]For the Ti(IV) complexes, Kapp (the apparent binding constant) was calculated using eqn (6), where KEtBr (1.0 × 10^7 M^−1) is the DNA binding constant of EB, [EtBr] is the concentration of EB = 10 μM and [Complex]50 denotes the complex concentration at which the fluorescence intensity of the DNA-EB adduct is reduced to 50%. […] Furthermore, the number of binding sites (n) and the equilibrium binding constant K were ascertained by using the Scatchard eqn (7):7 Log(I0 − I/I) = log K + n log[Q]where I0 is the fluorescence intensity of CT-DNA + EtBr in the absence of complex and I points to the fluorescence intensities of CT-DNA in the presence of a complex of concentration [Q]. The significant quenching in fluorescence intensity of all metal complexes (Table 2), the Stern–Volmer (ESI Fig. S64 ^†) and Scatchard plots (Fig. 4(c), ESI Fig. S65 ^† and Table 2), and other computations performed, supported the strong groove-binding interaction mode with CT-DNA.

CT-DNA [2] = assay: Agarose gel electrophoresis, CT-DNA cleavage; assay type: biochemical, calf; conditions: complex at 3, 1.5 and 0.75 mM
Description: The interaction and effectiveness of the Ti(IV) complex on CT-DNA were investigated using the agarose gel electrophoresis technique. This was accomplished by incubating the reaction mixtures separately, each of which contained 20 μL of CT-DNA and 20 μL of titanium complexes in PBS buffer solution, at 310 K for one hour. The tracking […] dye (1 μL) and all of the prepared solutions (5 μL) were then combined and applied to the wells of a 1% agarose gel containing 1 mM ethidium bromide that was prepared well in advance. Then the reaction mixture of complexes and CT-DNA was loaded in the wells separately using 0.25% […] dye. The electrophoresis mobility experiment was then carried out in an EDTA-PBS buffer for 60 minutes at a constant electrical voltage of 100 V until the dye reached 50% of the gel distribution area. In order to evaluate the degree of DNA binding capacity of the Ti(IV) complexes, the resultant bands were finally captured on a camera using the AXYGEN digital camera Gel Documentation System under UV light.[49–51]
There are two types of cleavage of nucleic acid chains: enzymatic and non-enzymatic. Either the oxidative cleavage of deoxyribose residues or the hydrolysis of phosphodiester links, known as hydrolytic cleavage, can result in non-enzymatic cleavage. Strong Lewis acidic metal complexes with transition metals are the main source of hydrolytic cleavage. The hydrolysis of the phosphate backbone of the nucleic acid is facilitated by a metal–phosphate intermediate. In order to understand the catalytic mechanisms of natural nucleases and to develop medications that target nucleic acids, it is crucial to design and synthesize metal complexes that can hydrolytically cleave the phosphodiester link. Agarose gel electrophoresis was used to test the capacity of the complex to cleave CT-DNA.

[3] = n-Octanol/water partition coefficient, shake flask method; assay type: physicochemical; conditions: partition coefficient of n-octanol/water
Description: Drugs were measured for oral bioavailability and cellular accumulation using their lipophilicity. This can be stated as the log P value of the n-octanol/water partition coefficient, which is an essential prerequisite for many in silico medicinal chemistry approaches. The n-octanol/water partition coefficient (log Po/w), where Po/w = the octanol/water partition coefficient, was analyzed using the shake flask method. The experimental log Po/w values of these complexes were discovered to be between 0.12 and 0.87 (ESI Fig. S60 ^† and Table 1).

MCF7 cells = assay: MTT cytotoxicity assay, MCF7; assay type: cell-based, human; conditions: 48 h of drug exposure
Description: The in vitro cytotoxicity of the Ti(IV) complexes under investigation was investigated using MTT, a micro-titration colorimetric method. The in vitro cytotoxicity test of the Ti(IV) complexes was evaluated against the cervical cancer cell line (HeLa), human breast cancer cell line (MCF-7) and human kidney normal cell line (HEK-293).[65,66]
In the cytotoxicity assay, tetrazolium salt 3-[4,5-dimethylthiazol-2-yl]-2,5diphenyl tetrazolium bromide (MTT) was utilized to assess cell viability. The MTT powder was diluted in Dulbecco's PBS (stock solution of MTT (5 mg mL^−1)) to attain a final concentration of 0.5 mg mL^−1 and a […] was used to filter and sterilize the stock solution, which was then kept at 2–6 °C. In metabolically active cells, MTT is reduced to produce an insoluble purple formazan product. In the exponential phase, cells were taken out of the stored cultures after the 48-hour recovery period, following seeding onto 96-well plates at a density of 1 × 10^4 cells per well in 100 μL medium at 37 °C in a 95% air and 5% CO2 environment, and the cells were incubated for 12 hours. Cell lines were treated for 48 hours with Ti(IV) complexes at varying doses (9.5–300 μM) and cis-platin as a control (apart from normal cells). After 48 hours of incubation at 37 °C, the medium was removed and 100 μL of DMSO was added to dissolve the […], and the culture plates were shaken for five minutes. A Bio-Rad xMARK™ multi-well plate reader was used to measure the absorbance of each well at 570 nm. Using eqn (2), the percentage viability, which represents the relative viability of the treated cells in comparison to the control cells, was calculated, and the IC50 values and standard deviation of the substances under investigation were calculated in triplicate.2 [drawing 2]
An MTT assay was used to examine the cytotoxic effectiveness of the produced Ti(IV) complexes. After 48 hours of incubation, the cytotoxicity of Ti-1-IS to Ti-6-IBr was evaluated against human cancer cell lines, such as breast carcinoma (MCF7) and cervical cancer (HeLa), as well as the non-cancerous human embryonic kidney (HEK) cell line, by using the widely used therapeutic drug, cis-platin, as a positive control by following the standard protocol.

[4] = from eqn (6), complex concentration at 50% fluorescence

Row | SMILES | KSV, Stern–Volmer quenching constant (CT-DNA [1]) [M⁻¹] | Kapp, apparent DNA binding constant (CT-DNA [1]; [4]) [M⁻¹] | DNA cleavage activity (CT-DNA [2]) | Log Po/w [3] | IC50 (MCF7 cells) [µM] | KSV, Stern–Volmer quenching constant (CT-DNA [1]; text value) [M⁻¹] | Kapp, apparent DNA binding constant (CT-DNA [1]) [M⁻¹]
1 | [O-]C(=NN=Cc1ccccc1[O-])c1ccncc1.[O-]C(=NN=Cc1ccccc1[O-])c1ccncc1.[Ti+4] [Ti-1-IS] | 6000 | 3.03e+06 | less cleavage activity | 0.87 | 109.22 ± 0.1 |  | 
2 | [O-]C(=NN=Cc1c([O-])ccc2ccccc12)c1ccncc1.[O-]C(=NN=Cc1c([O-])ccc2ccccc12)c1ccncc1.[Ti+4] [Ti-2-IN] | 19000 | 3.56e+06 | less cleavage activity | 0.78 | 85.04 ± 0.5 |  | 
3 | COc1cccc(C=NN=C([O-])c2ccncc2)c1[O-].COc1cccc(C=NN=C([O-])c2ccncc2)c1[O-].[Ti+4] [Ti-3-IO] | 16000 | 3.4e+06 | higher DNA cleavage even at the lowest concentration | 0.13 | 102.9 ± 0.3 |  | 
4 | [O-]C(=NN=Cc1cc(F)ccc1[O-])c1ccncc1.[O-]C(=NN=Cc1cc(F)ccc1[O-])c1ccncc1.[Ti+4] [Ti-4-IF] | 14000 | 3.41e+06 | higher DNA cleavage even at the lowest concentration | 0.12 | 109.8 ± 0.2 |  | 
5 | [O-]C(=NN=Cc1cc(Cl)ccc1[O-])c1ccncc1.[O-]C(=NN=Cc1cc(Cl)ccc1[O-])c1ccncc1.[Ti+4] [Ti-5-ICl] | 26000 | 3.43e+06 | comparatively higher DNA binding cleavage in higher concentration | 0.31 | 65.2 ± 1.2 | 26000 | 
6 | Brc1ccc2c(c1)C=NN=C(c1ccncc1)[O][Ti]1([O]C(c3ccncc3)=NN=Cc3cc(Br)ccc3[O]1)[O]2 (centres unmarked) [Ti-6-IBr] | 16000 | 4.24e+06 | comparatively higher DNA binding cleavage in higher concentration | 0.15 | 84.67 ± 0.5 |  | 4.24e+06

From article PMC12264794, “Homoleptic complexes of titanium(IV) fused with O^N^O Schiff base derivatives: design, BSA–DNA interaction, molecular docking, DFT and cytotoxicity” (RSC Advances, 2025)
